This passage reports Km results from PMC4672112, “Purification, Characterization of L-Methioninase from Candida tropicalis, and Its Application as an Anticancer” (Biotechnology Research International, 2015).

For the assay, the system named is T1, L-methioninase.
T1 construct: native, intracellular, purified from C. tropicalis cells (heat treatment, DEAE-cellulose, Sephadex); 46 kDa by SDS-PAGE; PLP enzyme
The assay is described as follows: DTNB methanethiol assay, […] nm; Lineweaver-Burk plot. Conditions: optimum assay conditions (pH 6.5, 45 C, 10 min), PLP; substrate range printed as 1 to 40 uM, which conflicts with the unit of Km; read-out: apparent Km. Type of assay: biochemical, Candida tropicalis.

By Km is commonly meant the concentration of substrate that gives half-maximal velocity.

Structures are written as SMILES.

Regarding `CSCC[C@H](N)C(=O)O` [L-methionine], the Km was 500 µM.
